{"source": "patent US6914045B2", "about": "“Glycopeptide antibiotics” (Wyeth Holdings Corporation, priority 2001, dated 2005)", "experiment_in_all_cases": "in vitro antibacterial evaluation, MIC by broth dilution", "type_in_all_cases": "cell-based", "key": {"Enterococcus sp.": {"test_system": "Enterococcus sp.", "conditions": "broth dilution, 18 hours at 35° C.", "in_short": "(§1)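 Following National Committee for Clinical Laboratory Standards recommendations (M7-A2), susceptibility was measured by dilution in Muller-Hinton II […]. Bacteria were seeded at 5×10^5 CFU/mL against compound concentrations from 64 down to 0.06 μg/mL.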"}, "Escherichia coli": {"test_system": "Escherichia coli", "conditions": "18 hours at 35° C.", "in_short": "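Read-out: the lowest concentration at which the test strain fails to grow. Serial dilutions (64-0.06 μg/mL) in Muller-Hinton II […], 5×10^5 CFU/mL inoculum, NCCLS M7-A2 procedure.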"}, "Staphylococcus sp.": {"test_system": "Staphylococcus sp.", "conditions": "broth dilution, 18 hours at 35° C.", "in_short": "as §1"}, "Streptococcus sp.": {"test_system": "Streptococcus sp.", "conditions": "broth dilution, 18 hours at 35° C.", "in_short": "as §1"}}, "note": "Numbered stars: 1 amine (or outer) side, 2 acyl side, 3 side chain; on linkers, the order of the positions; unused ones are H or OH. Square brackets hold non-standard residues; d marks the D form. Peptide text beside a SMILES is read from it. * marks the point of attachment. ξ: configuration not given here. X1 = N=C1NCC(C(O)C(N[*:1])C(=O)[*:2])N1C1OC(CO)C(O)C(O)C1O; ξEnduracididine(βξ-OH,4'ξ) = N=C1NCC(C(O)C(N)C(=O)O)N1; X2 = OCC1OC(OC2C(CO)OC(*)C(O)C2O)C(O)C(O)C1O", "data": [{"smiles": "N=C1NCC(C(O)C2NC(=O)C(Cc3ccc(OC4OC(CO)C(OC5OC(CO)C(O)C(O)C5O)C(O)C4O)cc3)NC(=O)C(Cc3ccccc3)NC(=O)CNC(=O)C(CO)NC(=O)C(C(O)C3CNC(=N)N3C3OC(CO)C(O)C(O)C3O)NC2=O)N1", "note": "(stereo not drawn) [Example 282, Cyclo[glycylphenylalanyl-O-(4-O-hexopyranosylhexopyranosyl)tyrosyl-3-(2-iminomidazolidin-4-yl)seryl-3-(3-hexopyranosyl-2-iminoimidazolidin-4-yl)serylseryl]] (cyclo(GFY(X2)[ξEnduracididine(βξ-OH,4'ξ)][X1]S); configuration not given here)", "values": [{"measurement": "MIC Enterococcus avium (GC 4558)", "setting": "Enterococcus sp.; Enterococcus avium (GC 4558)", "result": 128, "unit": "µg/mL"}, {"measurement": "MIC Enterococcus faecalis (ATCC 29212)", "setting": "Enterococcus sp.; Enterococcus faecalis (ATCC 29212)", "result": ">128", "unit": "µg/mL"}, {"measurement": "MIC Enterococcus faecalis (GC 4553)", "setting": "Enterococcus sp.; Enterococcus faecalis (GC 4553)", "result": ">128", "unit": "µg/mL"}, {"measurement": "MIC Enterococcus faecalis (GC 4554)", "setting": "Enterococcus sp.; Enterococcus faecalis (GC 4554)", "result": ">128", "unit": "µg/mL"}, {"measurement": "MIC Enterococcus faecalis (GC 6189)", "setting": "Enterococcus sp.; Enterococcus faecalis (GC 6189)", "result": ">128", "unit": "µg/mL"}, {"measurement": "MIC Enterococcus faecium (GC 2243)", "setting": "Enterococcus sp.; Enterococcus faecium (GC 2243)", "result": ">128", "unit": "µg/mL"}, {"measurement": "MIC Enterococcus faecium (GC 4556)", "setting": "Enterococcus sp.; Enterococcus faecium (GC 4556)", "result": ">128", "unit": "µg/mL"}, {"measurement": "MIC Enterococcus faecium (GC 4557)", "setting": "Enterococcus sp.; Enterococcus faecium (GC 4557)", "result": 128, "unit": "µg/mL"}, {"measurement": "MIC Enterococcus faecalis (ATCC 29212)", "setting": "Enterococcus sp.; strain ATCC 29212", "result": ">128", "unit": "µg/mL"}, {"measurement": "MIC Enterococcus faecalis (GC 2242)", "setting": "Enterococcus sp.; strain GC 2242", "result": ">128", "unit": "µg/mL"}, {"measurement": "MIC Enterococcus faecium (GC 2243)", "setting": "Enterococcus sp.; strain GC 2243", "result": ">128", "unit": "µg/mL"}, {"measurement": "MIC Enterococcus faecalis (GC 2691)", "setting": "Enterococcus sp.; strain GC 2691", "result": ">128", "unit": "µg/mL"}, {"measurement": "MIC Enterococcus faecalis (GC 3059)", "setting": "Enterococcus sp.; strain GC 3059", "result": ">128", "unit": "µg/mL"}, {"measurement": "MIC Enterococcus faecalis (GC 4552)", "setting": "Enterococcus sp.; strain GC 4552", "result": ">128", "unit": "µg/mL"}, {"measurement": "MIC Enterococcus faecalis (GC 4553)", "setting": "Enterococcus sp.; strain GC 4553", "result": ">128", "unit": "µg/mL"}, {"measurement": "MIC Enterococcus faecalis (GC 4554)", "setting": "Enterococcus sp.; strain GC 4554", "result": ">128", "unit": "µg/mL"}, {"measurement": "MIC Enterococcus faecium (GC 4556)", "setting": "Enterococcus sp.; strain GC 4556", "result": ">128", "unit": "µg/mL"}, {"measurement": "MIC Enterococcus faecium (GC 4557)", "setting": "Enterococcus sp.; strain GC 4557", "result": 128, "unit": "µg/mL"}, {"measurement": "MIC Enterococcus avium (GC 4558)", "setting": "Enterococcus sp.; strain GC 4558", "result": 128, "unit": "µg/mL"}, {"measurement": "MIC Enterococcus faecalis (GC 6189)", "setting": "Enterococcus sp.; strain GC 6189", "result": ">128", "unit": "µg/mL"}, {"measurement": "MIC Escherichia coli (ATCC 25922)", "setting": "Escherichia coli; Escherichia coli (ATCC 25922)", "result": ">128", "unit": "µg/mL"}, {"measurement": "MIC Escherichia coli (GC 4559)", "setting": "Escherichia coli; Escherichia coli (GC 4559)", "result": ">128", "unit": "µg/mL"}, {"measurement": "MIC Escherichia coli (GC 4560)", "setting": "Escherichia coli; Escherichia coli (GC 4560)", "result": 128, "unit": "µg/mL"}, {"measurement": "MIC Coagulase Negative Staphylococcus (GC 4547)", "setting": "Staphylococcus sp.", "result": ">128", "unit": "µg/mL"}, {"measurement": "MIC Coagulase Negative Staphylococcus (GC 4548)", "setting": "Staphylococcus sp.", "result": ">128", "unit": "µg/mL"}, {"measurement": "MIC Coagulase Negative Staphylococcus (GC 4549)", "setting": "Staphylococcus sp.", "result": ">128", "unit": "µg/mL"}, {"measurement": "MIC Coagulase Negative Staphylococcus (GC 4551)", "setting": "Staphylococcus sp.", "result": ">128", "unit": "µg/mL"}, {"measurement": "MIC Staphylococcus aureus (ATCC 29213)", "setting": "Staphylococcus sp.", "result": ">128", "unit": "µg/mL"}, {"measurement": "MIC Staphylococcus aureus (GC 1131)", "setting": "Staphylococcus sp.", "result": ">128", "unit": "µg/mL"}, {"measurement": "MIC Staphylococcus aureus (GC 3051)", "setting": "Staphylococcus sp.", "result": ">128", "unit": "µg/mL"}, {"measurement": "MIC Staphylococcus aureus (GC 3053)", "setting": "Staphylococcus sp.", "result": ">128", "unit": "µg/mL"}, {"measurement": "MIC Staphylococcus aureus (GC 4541)", "setting": "Staphylococcus sp.", "result": ">128", "unit": "µg/mL"}, {"measurement": "MIC Staphylococcus aureus (GC 4542)", "setting": "Staphylococcus sp.", "result": ">128", "unit": "µg/mL"}, {"measurement": "MIC Staphylococcus aureus (GC 4544)", "setting": "Staphylococcus sp.", "result": ">128", "unit": "µg/mL"}, {"measurement": "MIC Staphylococcus aureus (GC 4545)", "setting": "Staphylococcus sp.", "result": ">128", "unit": "µg/mL"}, {"measurement": "MIC Staphylococcus aureus-SMITH (GC 4543)", "setting": "Staphylococcus sp.", "result": ">128", "unit": "µg/mL"}, {"measurement": "MIC Staphylococcus haemolyticus (GC 4546)", "setting": "Staphylococcus sp.", "result": ">128", "unit": "µg/mL"}, {"measurement": "MIC Staphylococcus aureus (ATCC 29213)", "setting": "Staphylococcus sp.; strain ATCC 29213", "result": ">128", "unit": "µg/mL"}, {"measurement": "MIC Staphylococcus aureus (GC 1131)", "setting": "Staphylococcus sp.; strain GC 1131", "result": ">128", "unit": "µg/mL"}, {"measurement": "MIC Staphylococcus aureus (GC 3051)", "setting": "Staphylococcus sp.; strain GC 3051", "result": ">128", "unit": "µg/mL"}, {"measurement": "MIC Staphylococcus aureus (GC 3053)", "setting": "Staphylococcus sp.; strain GC 3053", "result": ">128", "unit": "µg/mL"}, {"measurement": "MIC Staphylococcus aureus (GC 4541)", "setting": "Staphylococcus sp.; strain GC 4541", "result": ">128", "unit": "µg/mL"}, {"measurement": "MIC Staphylococcus aureus (GC 4542)", "setting": "Staphylococcus sp.; strain GC 4542", "result": ">128", "unit": "µg/mL"}, {"measurement": "MIC Staphylococcus aureus (GC 4544)", "setting": "Staphylococcus sp.; strain GC 4544", "result": ">128", "unit": "µg/mL"}, {"measurement": "MIC Staphylococcus aureus (GC 4545)", "setting": "Staphylococcus sp.; strain GC 4545", "result": ">128", "unit": "µg/mL"}, {"measurement": "MIC Staphylococcus haemolyticus (GC 4546)", "setting": "Staphylococcus sp.; strain GC 4546", "result": ">128", "unit": "µg/mL"}, {"measurement": "MIC Coagulase Negative Staphylococcus (GC 4547)", "setting": "Staphylococcus sp.; strain GC 4547", "result": ">128", "unit": "µg/mL"}, {"measurement": "MIC Coagulase Negative Staphylococcus (GC 4548)", "setting": "Staphylococcus sp.; strain GC 4548", "result": ">128", "unit": "µg/mL"}, {"measurement": "MIC Coagulase Negative Staphylococcus (GC 4549)", "setting": "Staphylococcus sp.; strain GC 4549", "result": ">128", "unit": "µg/mL"}, {"measurement": "MIC Coagulase Negative Staphylococcus (GC 4551)", "setting": "Staphylococcus sp.; strain GC 4551", "result": ">128", "unit": "µg/mL"}, {"measurement": "MIC Staphylococcus aureus-SMITH (GC 4543)", "setting": "Staphylococcus sp.; strain SMITH GC 4543", "result": ">128", "unit": "µg/mL"}, {"measurement": "MIC Streptococcus pneumoniae (ATCC 6301)", "setting": "Streptococcus sp.; strain ATCC 6301", "result": 128, "unit": "µg/mL"}, {"measurement": "MIC Streptococcus pneumoniae (GC 1894)", "setting": "Streptococcus sp.; strain GC 1894", "result": 128, "unit": "µg/mL"}, {"measurement": "MIC Streptococcus pyogenes (GC 4563)", "setting": "Streptococcus sp.; strain GC 4563", "result": ">128", "unit": "µg/mL"}, {"measurement": "MIC Streptococcus agalactiae (GC 4564)", "setting": "Streptococcus sp.; strain GC 4564", "result": ">128", "unit": "µg/mL"}, {"measurement": "MIC Streptococcus pneumoniae (GC 4565)", "setting": "Streptococcus sp.; strain GC 4565", "result": ">128", "unit": "µg/mL"}]}]}
